Experimental data taken from patent US20060084704A1, “Methods and compositions for enhancing degradation of nuclear receptor transcription factors and uses thereof” (priority 2004, published 2006).

Columns and labels:
PPAR gamma = target: T1, PPAR gamma (Homo sapiens, UniProt P37231); assay: Western blot of LNCaP cell lysates, PPAR gamma; assay type: cell-based; conditions: 1 or 2 micromolar, 24 hours, presence or absence of DHT
T1 construct: endogenous in cells; host or cells: LNCaP
T1 sequence (P37231 1-505): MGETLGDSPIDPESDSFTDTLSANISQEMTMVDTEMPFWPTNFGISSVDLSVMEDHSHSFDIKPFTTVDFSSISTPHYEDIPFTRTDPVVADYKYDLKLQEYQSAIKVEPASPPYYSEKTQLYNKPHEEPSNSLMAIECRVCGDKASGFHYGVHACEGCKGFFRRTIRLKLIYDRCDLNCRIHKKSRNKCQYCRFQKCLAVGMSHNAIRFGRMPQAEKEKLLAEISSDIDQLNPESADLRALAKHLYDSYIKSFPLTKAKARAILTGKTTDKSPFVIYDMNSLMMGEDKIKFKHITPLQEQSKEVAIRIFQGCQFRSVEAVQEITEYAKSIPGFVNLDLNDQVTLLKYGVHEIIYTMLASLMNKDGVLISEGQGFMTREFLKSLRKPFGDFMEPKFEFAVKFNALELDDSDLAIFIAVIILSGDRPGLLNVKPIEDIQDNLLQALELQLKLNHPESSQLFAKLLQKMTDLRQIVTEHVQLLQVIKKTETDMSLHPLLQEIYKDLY
Experimental: Human prostate cancer LNCaP cells and T47D cells were plated at a density of 7×10^5 cells per 60 millimeter tissue culture dish in […] (RPMI) medium containing 10% FBS. The medium was changed to RPMI or DME medium containing 10% charcoal-stripped serum 24 hours later to deplete cellular androgens or estrogens. After another 24 hours, treatment with the test compounds began. The test dose of JC15 was 1 or 2 micromolar and the test does of JC9 was 1, 5 and 10 micromolar. LNCap cells also received dihydrotestosterone (DHT) (3 nanomolar). Control cells received a corresponding amount of the vehicle, dimethylsulfoxide (DMSO) (<0.04%) for an equivalent exposure time. Cells were incubated with JC15 for 24 or 48 hours, and were lysed in 250 microliters of 1×SDS/PAGE loading buffer. Approximately 40 micrograms of total cellular protein was loaded in each lane of a pre-cast gel (NuPAGE, Invitrogen). Protein separation and transfer were performed following the manufacturer's instructions.
For the prostate cell lysates, androgen receptor (AR) protein was visualized by incubating the resultant membranes with an anti-AR antibody (BD-PharMingen), followed by chemiluminescence detection (ECL Plus, Amersham). […] The resultant protein signals were quantified using densitometry and NIH ImageJ software.

AR = target: T2, AR (Homo sapiens, UniProt P10275, T878A); assay type: cell-based; conditions: LNCaP, JC9 5 micromolar about 20 hours, then cycloheximide 15 micrograms/milliliter
T2 construct: LNCaP cells express an endogenous mutant AR that is found in prostate cancer patients; host or cells: LNCaP
T2 sequence (P10275 1-920 T878A): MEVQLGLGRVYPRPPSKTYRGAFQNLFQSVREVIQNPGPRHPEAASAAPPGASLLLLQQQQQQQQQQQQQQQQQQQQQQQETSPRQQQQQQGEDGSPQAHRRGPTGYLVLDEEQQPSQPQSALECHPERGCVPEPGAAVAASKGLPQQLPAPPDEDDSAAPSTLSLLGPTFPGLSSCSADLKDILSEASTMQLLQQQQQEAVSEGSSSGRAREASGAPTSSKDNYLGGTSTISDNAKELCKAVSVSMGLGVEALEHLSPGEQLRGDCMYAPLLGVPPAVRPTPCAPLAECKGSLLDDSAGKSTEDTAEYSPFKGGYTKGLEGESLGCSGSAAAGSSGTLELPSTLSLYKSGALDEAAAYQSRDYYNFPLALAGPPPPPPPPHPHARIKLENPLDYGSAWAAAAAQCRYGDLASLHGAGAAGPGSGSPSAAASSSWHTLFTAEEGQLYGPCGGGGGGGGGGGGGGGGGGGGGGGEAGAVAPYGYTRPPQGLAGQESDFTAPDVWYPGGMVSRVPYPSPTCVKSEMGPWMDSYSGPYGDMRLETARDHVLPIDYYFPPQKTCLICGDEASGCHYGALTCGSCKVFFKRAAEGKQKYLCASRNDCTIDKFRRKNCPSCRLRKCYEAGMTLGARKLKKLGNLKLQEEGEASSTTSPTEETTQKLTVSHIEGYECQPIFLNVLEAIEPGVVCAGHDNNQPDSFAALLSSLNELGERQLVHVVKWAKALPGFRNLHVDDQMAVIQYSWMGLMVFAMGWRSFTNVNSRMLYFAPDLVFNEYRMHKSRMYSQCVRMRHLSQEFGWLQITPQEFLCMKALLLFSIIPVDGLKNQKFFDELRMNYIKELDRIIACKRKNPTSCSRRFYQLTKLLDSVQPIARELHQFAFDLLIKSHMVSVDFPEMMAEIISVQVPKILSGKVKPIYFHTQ
Experimental: To determine whether the observed reduction of AR protein levels was due to protein degradation rather than inhibition of AR protein synthesis, a second set of three replicate experiments was performed. […] In the absence of new AR protein synthesis, any alterations in AR levels would be mainly attributable to protein degradation. LNCaP cells were cultured, and incubated with JC9 (5 micromolar) for about 20 hours.

cellular concentration of PPAR gamma (PPAR gamma) | Compound | time within which degradation of existing AR protein was enhanced (AR)
did not substantially affect | CCOC(=O)CCC(C(=O)C=Cc1ccc(O)c(OC)c1)C(=O)C=Cc1ccc(O)c(OC)c1 (centres unmarked) [JC15, 7-(4-hydroxy-3-methoxyphenyl)-4-[3-(4-hydroxy-3-methoxyphenyl)acryloyl]-5-oxo-hept-6-enoic acid ethyl ester] | 
 | COc1ccc(C=CC(=O)C=C(O)C=Cc2ccc(OC)c(OC)c2)cc1OC [JC9, 5-hydroxy-1,7-bis(3,4-dimethoxyphenyl)-1,4,6-heptatrien-3-one] | ≤ 4 h
